Laboratory results from ChEMBL document CHEMBL5291721, “A preclinical secondary pharmacology resource illuminates target-adverse drug reaction associations of marketed drugs” (Nat Commun, 2023).

What was measured:
[1] = molecular target: T1, Progesterone receptor (Homo sapiens, UniProt P06401); assay type: functional
T1 sequence (P06401 whole entry): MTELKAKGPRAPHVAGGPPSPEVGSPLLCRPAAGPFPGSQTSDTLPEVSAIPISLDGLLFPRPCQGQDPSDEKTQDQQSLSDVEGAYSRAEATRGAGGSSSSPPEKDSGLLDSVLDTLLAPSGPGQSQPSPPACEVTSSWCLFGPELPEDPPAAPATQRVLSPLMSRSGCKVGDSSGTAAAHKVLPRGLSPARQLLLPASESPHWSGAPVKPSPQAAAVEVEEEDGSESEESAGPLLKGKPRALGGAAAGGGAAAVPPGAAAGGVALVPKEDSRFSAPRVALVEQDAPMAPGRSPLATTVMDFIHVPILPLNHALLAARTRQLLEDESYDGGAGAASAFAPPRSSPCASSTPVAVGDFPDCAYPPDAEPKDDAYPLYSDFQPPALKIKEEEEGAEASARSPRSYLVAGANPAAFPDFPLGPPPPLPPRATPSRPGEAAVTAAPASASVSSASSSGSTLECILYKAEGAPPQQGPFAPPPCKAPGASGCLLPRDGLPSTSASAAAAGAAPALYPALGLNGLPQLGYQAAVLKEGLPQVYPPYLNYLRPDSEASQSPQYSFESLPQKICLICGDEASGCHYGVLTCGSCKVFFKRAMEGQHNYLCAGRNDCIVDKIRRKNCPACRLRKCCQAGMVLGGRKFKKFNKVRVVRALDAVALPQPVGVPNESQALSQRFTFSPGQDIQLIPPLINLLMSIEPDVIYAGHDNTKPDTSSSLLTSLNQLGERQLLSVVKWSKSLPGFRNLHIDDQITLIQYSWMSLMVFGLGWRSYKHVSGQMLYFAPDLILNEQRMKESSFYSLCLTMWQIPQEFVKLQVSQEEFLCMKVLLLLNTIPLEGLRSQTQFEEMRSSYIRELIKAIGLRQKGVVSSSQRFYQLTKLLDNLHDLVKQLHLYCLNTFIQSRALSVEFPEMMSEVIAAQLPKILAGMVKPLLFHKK

[2] = molecular target: Adenosine receptor A2a (Homo sapiens, UniProt P29274)
Adenosine receptor A2a, sequence (P29274 whole entry): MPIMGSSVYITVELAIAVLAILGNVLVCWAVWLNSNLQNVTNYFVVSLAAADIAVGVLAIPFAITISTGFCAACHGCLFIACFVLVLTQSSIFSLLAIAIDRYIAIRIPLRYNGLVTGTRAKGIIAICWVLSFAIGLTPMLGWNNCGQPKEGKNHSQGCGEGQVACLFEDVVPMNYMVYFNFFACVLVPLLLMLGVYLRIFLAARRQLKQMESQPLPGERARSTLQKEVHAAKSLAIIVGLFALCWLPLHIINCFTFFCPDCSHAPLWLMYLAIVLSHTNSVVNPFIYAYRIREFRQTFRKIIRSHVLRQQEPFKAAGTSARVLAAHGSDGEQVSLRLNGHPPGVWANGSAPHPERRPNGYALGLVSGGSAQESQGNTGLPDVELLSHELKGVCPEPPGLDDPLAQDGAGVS

[3] = molecular target: T2, 5-hydroxytryptamine receptor 3A (Homo sapiens, UniProt P46098); assay type: functional
T2 sequence (P46098 whole entry): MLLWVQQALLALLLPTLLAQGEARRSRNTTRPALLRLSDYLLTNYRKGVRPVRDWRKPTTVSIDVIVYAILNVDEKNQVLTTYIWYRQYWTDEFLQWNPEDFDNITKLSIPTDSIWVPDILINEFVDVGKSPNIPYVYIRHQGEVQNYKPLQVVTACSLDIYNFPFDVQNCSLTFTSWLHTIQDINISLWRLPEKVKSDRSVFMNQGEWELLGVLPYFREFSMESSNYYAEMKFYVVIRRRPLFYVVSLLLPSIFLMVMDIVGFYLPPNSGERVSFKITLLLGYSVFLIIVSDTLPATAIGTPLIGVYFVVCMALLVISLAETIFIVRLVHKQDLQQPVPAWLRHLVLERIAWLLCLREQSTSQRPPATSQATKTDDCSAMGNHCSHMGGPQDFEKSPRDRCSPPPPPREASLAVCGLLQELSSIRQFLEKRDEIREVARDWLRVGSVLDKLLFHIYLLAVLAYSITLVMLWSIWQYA

[4] = molecular target: T3, Adenosine receptor A1 (Homo sapiens, UniProt P30542)
T3 sequence (P30542 whole entry): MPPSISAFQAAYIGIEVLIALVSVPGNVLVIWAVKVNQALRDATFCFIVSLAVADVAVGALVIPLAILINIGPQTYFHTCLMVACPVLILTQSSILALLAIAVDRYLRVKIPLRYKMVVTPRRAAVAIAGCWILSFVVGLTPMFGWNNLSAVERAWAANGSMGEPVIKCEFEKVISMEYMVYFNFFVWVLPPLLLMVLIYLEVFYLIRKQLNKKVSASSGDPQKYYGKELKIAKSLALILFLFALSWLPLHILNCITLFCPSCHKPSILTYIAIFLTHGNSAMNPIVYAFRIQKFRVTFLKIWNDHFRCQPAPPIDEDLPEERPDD

[5] = molecular target: T4, B2 bradykinin receptor (Homo sapiens, UniProt P30411)
T4 sequence (P30411 whole entry): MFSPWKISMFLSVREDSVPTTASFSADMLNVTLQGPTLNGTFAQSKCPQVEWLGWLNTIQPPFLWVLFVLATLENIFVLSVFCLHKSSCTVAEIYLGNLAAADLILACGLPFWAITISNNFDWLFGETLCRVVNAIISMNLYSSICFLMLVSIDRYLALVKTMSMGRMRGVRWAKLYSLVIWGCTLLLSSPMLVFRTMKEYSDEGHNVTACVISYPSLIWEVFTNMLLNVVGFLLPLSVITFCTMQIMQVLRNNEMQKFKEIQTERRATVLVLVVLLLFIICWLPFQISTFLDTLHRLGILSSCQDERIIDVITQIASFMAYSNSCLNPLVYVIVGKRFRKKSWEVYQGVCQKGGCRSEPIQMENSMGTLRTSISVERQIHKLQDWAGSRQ

[6] = molecular target: Voltage-dependent L-type calcium channel subunit alpha-1C (Rattus norvegicus, UniProt P22002); assay type: functional
Voltage-dependent L-type calcium channel subunit alpha-1C, sequence (P22002 whole entry): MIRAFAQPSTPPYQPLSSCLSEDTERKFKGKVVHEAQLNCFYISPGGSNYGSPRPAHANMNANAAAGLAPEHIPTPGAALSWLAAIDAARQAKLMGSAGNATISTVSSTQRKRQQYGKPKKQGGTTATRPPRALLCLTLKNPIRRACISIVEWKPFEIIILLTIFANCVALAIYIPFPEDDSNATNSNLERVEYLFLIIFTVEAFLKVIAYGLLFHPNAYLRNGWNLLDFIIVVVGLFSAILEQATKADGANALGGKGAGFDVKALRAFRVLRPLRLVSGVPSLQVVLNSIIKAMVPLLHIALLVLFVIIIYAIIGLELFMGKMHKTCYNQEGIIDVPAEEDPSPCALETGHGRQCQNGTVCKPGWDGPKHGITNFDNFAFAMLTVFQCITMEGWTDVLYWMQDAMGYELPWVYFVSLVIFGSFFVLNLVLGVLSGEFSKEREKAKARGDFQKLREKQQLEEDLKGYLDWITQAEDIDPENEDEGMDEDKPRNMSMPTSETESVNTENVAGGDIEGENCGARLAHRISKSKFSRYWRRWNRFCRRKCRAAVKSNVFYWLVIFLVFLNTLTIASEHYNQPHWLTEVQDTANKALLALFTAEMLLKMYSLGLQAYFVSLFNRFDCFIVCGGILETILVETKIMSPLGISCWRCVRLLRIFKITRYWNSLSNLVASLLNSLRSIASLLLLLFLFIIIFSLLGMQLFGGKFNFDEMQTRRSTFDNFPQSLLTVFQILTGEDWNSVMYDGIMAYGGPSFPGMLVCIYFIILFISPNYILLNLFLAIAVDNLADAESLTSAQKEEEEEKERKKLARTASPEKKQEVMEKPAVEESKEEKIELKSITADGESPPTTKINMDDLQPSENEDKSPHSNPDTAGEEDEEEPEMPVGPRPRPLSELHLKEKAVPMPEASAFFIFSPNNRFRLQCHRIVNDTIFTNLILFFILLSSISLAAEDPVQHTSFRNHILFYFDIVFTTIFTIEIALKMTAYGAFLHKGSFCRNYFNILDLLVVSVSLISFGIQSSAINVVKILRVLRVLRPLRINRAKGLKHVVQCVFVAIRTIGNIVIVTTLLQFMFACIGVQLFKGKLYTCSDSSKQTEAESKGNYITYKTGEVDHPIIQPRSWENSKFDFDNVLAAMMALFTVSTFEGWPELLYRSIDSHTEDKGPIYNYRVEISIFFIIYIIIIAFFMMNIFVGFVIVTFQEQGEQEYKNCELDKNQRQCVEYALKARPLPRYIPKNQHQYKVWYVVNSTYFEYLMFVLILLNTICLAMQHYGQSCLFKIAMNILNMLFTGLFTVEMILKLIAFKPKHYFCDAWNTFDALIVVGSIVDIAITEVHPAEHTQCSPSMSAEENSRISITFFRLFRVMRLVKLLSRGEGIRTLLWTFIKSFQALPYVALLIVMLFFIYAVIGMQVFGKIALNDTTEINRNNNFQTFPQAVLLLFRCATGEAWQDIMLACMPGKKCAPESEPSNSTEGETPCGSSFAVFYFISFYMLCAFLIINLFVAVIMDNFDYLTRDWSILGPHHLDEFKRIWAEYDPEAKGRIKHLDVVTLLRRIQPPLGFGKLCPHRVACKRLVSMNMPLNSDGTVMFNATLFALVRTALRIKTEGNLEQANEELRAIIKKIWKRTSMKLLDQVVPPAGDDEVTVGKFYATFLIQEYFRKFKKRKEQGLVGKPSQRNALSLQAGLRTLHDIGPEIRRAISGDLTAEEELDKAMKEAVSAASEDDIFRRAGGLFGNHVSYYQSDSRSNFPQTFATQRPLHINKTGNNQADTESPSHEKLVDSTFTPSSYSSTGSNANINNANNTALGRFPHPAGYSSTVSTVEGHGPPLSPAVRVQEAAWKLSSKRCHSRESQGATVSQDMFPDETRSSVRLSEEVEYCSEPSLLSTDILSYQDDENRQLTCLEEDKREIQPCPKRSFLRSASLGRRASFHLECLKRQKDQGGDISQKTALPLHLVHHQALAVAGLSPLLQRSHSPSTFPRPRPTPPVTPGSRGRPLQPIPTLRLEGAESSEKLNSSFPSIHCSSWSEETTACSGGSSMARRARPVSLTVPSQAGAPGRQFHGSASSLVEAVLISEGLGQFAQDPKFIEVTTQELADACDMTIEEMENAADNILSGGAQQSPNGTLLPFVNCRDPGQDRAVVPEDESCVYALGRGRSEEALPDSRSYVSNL

[7] = molecular target: Neuronal acetylcholine receptor subunit alpha-4 (Homo sapiens, UniProt P43681)
Neuronal acetylcholine receptor subunit alpha-4, sequence (P43681 whole entry): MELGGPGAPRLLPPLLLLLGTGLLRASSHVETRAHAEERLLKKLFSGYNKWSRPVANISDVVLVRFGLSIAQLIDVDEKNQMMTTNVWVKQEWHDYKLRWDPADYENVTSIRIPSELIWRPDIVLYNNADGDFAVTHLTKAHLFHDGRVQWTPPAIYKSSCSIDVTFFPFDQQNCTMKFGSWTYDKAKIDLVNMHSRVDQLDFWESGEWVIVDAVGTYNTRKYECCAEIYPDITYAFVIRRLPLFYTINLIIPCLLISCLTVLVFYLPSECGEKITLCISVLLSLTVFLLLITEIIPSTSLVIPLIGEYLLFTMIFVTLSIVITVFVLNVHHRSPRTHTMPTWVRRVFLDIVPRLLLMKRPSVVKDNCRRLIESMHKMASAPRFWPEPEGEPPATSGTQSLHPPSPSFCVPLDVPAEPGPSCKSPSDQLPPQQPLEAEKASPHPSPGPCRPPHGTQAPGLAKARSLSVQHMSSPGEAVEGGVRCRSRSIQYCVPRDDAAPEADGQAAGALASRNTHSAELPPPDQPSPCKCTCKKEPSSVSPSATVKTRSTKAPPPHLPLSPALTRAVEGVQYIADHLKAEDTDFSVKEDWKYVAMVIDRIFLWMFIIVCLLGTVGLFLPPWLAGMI

[8] = molecular target: D(3) dopamine receptor (Homo sapiens, UniProt P35462)
D(3) dopamine receptor, sequence (P35462 whole entry): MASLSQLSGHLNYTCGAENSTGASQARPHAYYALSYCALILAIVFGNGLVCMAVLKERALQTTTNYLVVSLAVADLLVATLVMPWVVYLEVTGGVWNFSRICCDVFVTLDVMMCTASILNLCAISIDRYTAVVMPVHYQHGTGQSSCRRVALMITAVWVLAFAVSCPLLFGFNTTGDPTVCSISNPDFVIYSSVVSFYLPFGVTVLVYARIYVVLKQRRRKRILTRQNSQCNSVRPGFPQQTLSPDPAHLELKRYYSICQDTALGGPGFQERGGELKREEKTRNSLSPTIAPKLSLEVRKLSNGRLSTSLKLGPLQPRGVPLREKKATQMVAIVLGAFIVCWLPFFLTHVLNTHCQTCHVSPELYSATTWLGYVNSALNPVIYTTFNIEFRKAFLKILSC

[9] = molecular target: T5, Adenosine receptor A3 (Homo sapiens, UniProt P0DMS8)
T5 sequence (P0DMS8 whole entry): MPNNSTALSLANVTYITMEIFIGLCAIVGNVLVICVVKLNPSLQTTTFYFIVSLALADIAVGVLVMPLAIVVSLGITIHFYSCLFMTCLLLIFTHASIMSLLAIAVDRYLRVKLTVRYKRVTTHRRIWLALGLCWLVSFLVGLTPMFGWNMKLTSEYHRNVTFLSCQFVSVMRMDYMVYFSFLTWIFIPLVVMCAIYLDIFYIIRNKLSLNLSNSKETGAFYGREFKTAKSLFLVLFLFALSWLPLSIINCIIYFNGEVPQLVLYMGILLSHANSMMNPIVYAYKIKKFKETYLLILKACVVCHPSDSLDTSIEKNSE

[10] = molecular target: Cannabinoid receptor 1 (Homo sapiens, UniProt P21554)
Cannabinoid receptor 1, sequence (P21554 whole entry): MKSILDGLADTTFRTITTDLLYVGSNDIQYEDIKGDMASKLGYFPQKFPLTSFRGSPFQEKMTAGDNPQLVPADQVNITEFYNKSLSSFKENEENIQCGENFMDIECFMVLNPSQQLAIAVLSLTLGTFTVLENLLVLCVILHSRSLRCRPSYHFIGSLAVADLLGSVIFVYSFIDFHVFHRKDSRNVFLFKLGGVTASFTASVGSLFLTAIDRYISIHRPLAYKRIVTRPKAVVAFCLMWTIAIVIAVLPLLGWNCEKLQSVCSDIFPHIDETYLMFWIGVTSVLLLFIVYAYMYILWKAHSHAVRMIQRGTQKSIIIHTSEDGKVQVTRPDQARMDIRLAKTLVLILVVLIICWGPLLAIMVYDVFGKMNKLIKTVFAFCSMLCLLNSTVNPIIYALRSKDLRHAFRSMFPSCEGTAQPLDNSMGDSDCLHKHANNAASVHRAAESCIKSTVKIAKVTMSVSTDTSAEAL
Also: assay procedure not described here.

| SMILES | AC50 [1] [µM] | AC50 [2] [µM] | AC50 [3] [µM] | AC50 [4] [µM] | AC50 [5] [µM] | AC50 [6] [µM] | AC50 [7] [µM] | AC50 [8] [µM] | AC50 [9] [µM] | AC50 [10] [µM] |
| --- | --- | --- | --- | --- | --- | --- | --- | --- | --- | --- |
| C[N+](C)(C)CCOP(=O)([O-])OC[C@H](O)CO | > 30 | > 30 | > 30 | > 30 | > 30 | > 30 | > 30 | > 30 | – | – |
| CN(C)C/C=C/C(=O)Nc1cc2c(Nc3ccc(F)c(Cl)c3)ncnc2cc1O[C@H]1CCOC1 [AFATINIB] | > 30 | > 30 | > 30 | > 30 | > 30 | – | > 30 | > 30 | – | – |
| CCC1(c2ccc(N)cc2)CCC(=O)NC1=O (centres undefined) [AMINOGLUTETHIMIDE] | > 30 | > 30 | > 30 | > 30 | > 30 | – | > 30 | > 30 | – | – |
| NC(=O)[C@@H]1CC[C@@H]2CN1C(=O)N2OS(=O)(=O)O [AVIBACTAM] | – | – | – | – | – | – | – | – | > 30 | – |
| CC1=C(C(=O)OC(C)C)C(c2cccc([N+](=O)[O-])c2)C(C(=O)OC2CN(C(c3ccccc3)c3ccccc3)C2)=C(N)N1 (centres undefined) [AZELNIDIPINE] | > 3 | > 30 | > 30 | > 30 | > 10 | 0.092 | > 30 | > 30 | – | – |
| CC(Cc1cccc(C(F)(F)F)c1)NCCOC(=O)c1ccccc1 (centres undefined) [BENFLUOREX] | > 30 | > 30 | – | > 30 | > 30 | – | > 30 | 2.63 | – | – |
| C=C1CC[C@H](O)C/C1=C/C=C1\CCC[C@]2(C)[C@@H]([C@H](C)CCCC(C)C)CC[C@@H]12 [CHOLECALCIFEROL] | – | – | – | – | – | – | – | – | 14.8 | – |
| C[C@H](CCC(=O)O)[C@H]1CC[C@H]2[C@@H]3[C@H](O)C[C@@H]4C[C@H](O)CC[C@]4(C)[C@H]3C[C@H](O)[C@]12C [CHOLIC ACID] | – | – | – | – | – | – | – | – | > 30 | – |
| Cc1ncc2c(c1O)COC2c1ccc(Cl)cc1 (centres undefined) [CICLETANINE] | – | – | – | – | – | – | – | – | > 30 | – |
| CC(=O)O[C@H]1Cc2ccccc2N(C(N)=O)c2ccccc21 [ESLICARBAZEPINE ACETATE] | – | – | – | – | – | – | – | – | > 30 | – |
| CNCCc1ccc(OC(=O)C(C)C)c(OC(=O)C(C)C)c1 [IBOPAMINE] | > 30 | > 30 | > 30 | > 30 | > 30 | 18 | > 30 | 0.767 | – | – |
| CN(C)CCCN1c2ccccc2CCc2ccccc21 [IMIPRAMINE] | – | > 30 | > 10 | > 30 | > 30 | – | – | 0.41 | – | 0.174 |
| CCOC(=O)C1=C(C)NC(C)=C(C(=O)OCC)C1c1ccccc1/C=C/C(=O)OC(C)(C)C [LACIDIPINE] | 29 | > 30 | > 30 | > 30 | > 30 | 0.32 | > 30 | > 30 | – | – |
| COC(=O)C1=C(C)NC(C)=C(C(=O)OCCN2CCN(C(c3ccccc3)c3ccccc3)CC2)C1c1cccc([N+](=O)[O-])c1 (centres undefined) [MANIDIPINE 6300] | – | > 30 | > 30 | > 30 | > 30 | 0.3 | > 30 | 6.3 | – | – |
| COc1ccc(OC)c(C(O)C(C)N)c1 (centres undefined) [METHOXAMINE] | – | – | – | – | – | – | – | – | > 30 | – |
| CC1(CCN2CCCCC2)C(=O)CCc2ccccc21 (centres undefined) [NEPINALONE] | – | – | – | – | – | – | – | – | > 30 | – |
| COc1cccc(C(=O)CCN[C@@H](C)[C@H](O)c2ccccc2)c1 [OXYFEDRINE] | – | – | – | – | – | – | – | – | > 30 | – |
| CC[N+](C)(CC)CCOC(=O)C(O)(c1ccccc1)C1CCCCC1 (centres undefined) [OXYPHENONIUM] | – | – | – | – | – | – | – | – | > 30 | – |
| OC[C@H]1O[C@@H](n2cnc3c2NC=NC[C@H]3O)C[C@@H]1O [PENTOSTATIN] | > 30 | 3.4 | > 30 | 0.41 | > 30 | – | > 30 | > 30 | – | – |
| Cc1cccc(C)c1NC(=O)CC12CCCN1CCC2 [PILSICAINIDE] | > 30 | > 30 | > 30 | > 30 | > 30 | > 30 | > 30 | > 30 | – | – |
| CC(C)c1cccc(C(C)C)c1O [PROPOFOL] | > 30 | > 30 | > 30 | > 30 | – | – | > 30 | > 30 | – | – |
| CN[C@@H](C)[C@@H](O)c1ccccc1 [PSEUDOEPHEDRINE] | – | > 30 | > 30 | > 30 | > 30 | > 10 | > 10 | > 10 | – | – |
| CCCN1CC(NS(=O)(=O)N(CC)CC)CC2Cc3c(O)cccc3CC21 (centres undefined) [QUINAGOLIDE] | > 30 | > 30 | > 30 | > 30 | > 30 | > 30 | > 30 | 0.0028 | – | – |
| Clc1ccc(C(Cn2ccnc2)OCc2csc3c(Cl)cccc23)c(Cl)c1 (centres undefined) [SERTACONAZOLE] | – | – | – | – | – | – | – | – | 1.63 | – |
| CC(OCCN1CCCCCC1)(c1ccccc1)c1ccc(Cl)cc1 (centres undefined) [SETASTINE] | – | – | – | – | – | – | – | – | > 30 | – |
| O=C1OC(OC(=O)c2cccnc2Nc2cccc(C(F)(F)F)c2)c2ccccc21 (centres undefined) [TALNIFLUMATE] | > 30 | > 30 | > 30 | > 30 | > 30 | – | > 30 | > 30 | – | – |
| c1ccc2c(SC3=NCCN3)c[nH]c2c1 [TINAZOLINE] | – | – | – | – | – | – | – | – | > 30 | – |
| Cc1ccc(C(=O)C(C)CN2CCCCC2)cc1 (centres undefined) [TOLPERISONE] | – | – | – | – | – | – | – | – | > 30 | – |
| CCOC(=O)c1c(CSc2ccccc2)n(C)c2cc(Br)c(O)c(CN(C)C)c12 [UMIFENOVIR] | > 30 | 23 | > 30 | > 30 | > 30 | > 30 | > 30 | 6.8 | – | – |
